How the values were obtained:
[1] = target: T1, human glucocorticoid receptor (GR) complex (Homo sapiens, UniProt P04150); test: Glucocorticoid receptor competitive binding assay (fluorescence polarization, TAMRA-labeled dexamethasone probe); conditions: compounds of Formula (IA)
T1 construct: made in house; host or cells: insect expression system (baculovirus lysate)
T1 sequence (P04150 1-777): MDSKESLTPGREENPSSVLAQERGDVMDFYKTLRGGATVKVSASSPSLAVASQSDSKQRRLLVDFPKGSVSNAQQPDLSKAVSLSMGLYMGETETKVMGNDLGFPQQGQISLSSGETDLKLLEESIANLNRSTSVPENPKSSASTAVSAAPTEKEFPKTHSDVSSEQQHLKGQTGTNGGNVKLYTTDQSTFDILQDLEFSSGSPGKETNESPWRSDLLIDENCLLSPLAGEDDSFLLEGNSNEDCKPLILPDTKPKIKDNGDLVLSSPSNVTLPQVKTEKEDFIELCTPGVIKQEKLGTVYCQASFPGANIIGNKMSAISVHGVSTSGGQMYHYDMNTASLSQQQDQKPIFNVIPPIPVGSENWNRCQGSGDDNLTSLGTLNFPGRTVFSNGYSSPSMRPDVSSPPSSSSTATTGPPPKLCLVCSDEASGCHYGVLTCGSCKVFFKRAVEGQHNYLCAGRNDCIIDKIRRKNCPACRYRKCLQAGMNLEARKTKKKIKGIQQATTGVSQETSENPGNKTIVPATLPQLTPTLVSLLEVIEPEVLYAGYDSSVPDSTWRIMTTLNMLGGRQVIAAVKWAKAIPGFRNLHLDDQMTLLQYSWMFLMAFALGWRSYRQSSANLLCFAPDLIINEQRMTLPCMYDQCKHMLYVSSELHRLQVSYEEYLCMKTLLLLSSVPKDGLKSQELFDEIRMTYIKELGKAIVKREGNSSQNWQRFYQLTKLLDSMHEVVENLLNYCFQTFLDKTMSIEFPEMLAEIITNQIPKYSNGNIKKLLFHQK
Summary of the method: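 Fluorescence-polarization competition against 15 nM TAMRA-dexamethasone (stock added to the mix) for human GR complex from baculovirus lysate diluted 1:170. Buffer: 10 mM TES, 50 mM KCl, 20 mM Na2MoO4, 1.5 mM EDTA, 0.04% CHAPS, 10% glycerol, 1 mM DTT, pH 7.4. IC50 from 4-parameter logistic fit.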

[2] = system: glucocorticoid receptor function; test: one or more of the above assays (GR binding and glucocorticoid receptor cell assays: aromatase, IL-6, TAT, MMTV-Luc, IL-8, ICAM-Luc); assay type: cell-based; conditions: assay not specified per compound

| Structure (SMILES) | activity in the GR binding assay [1] | activity as agonists of the glucocorticoid receptor function in one or more of the above assays [2] |
| --- | --- | --- |
| CC(C)(CC(O)(Cc1cc2cnccc2[nH]1)C(F)(F)F)c1cc(F)cc2c1OCC2 (centres unmarked) [1,1,1-Trifluoro-4-(5-fluoro-2,3-dihydrobenzofuran-7-yl)-4-methyl-2-(1H pyrrolo[3,2-c]pyridin-2-ylmethyl)pentan-2-ol] | potent activity | potent agonists |
| CC(C)(CC(O)(Cc1ccnc2ccccc12)C(F)(F)F)c1ccccc1C(F)(F)F (centres unmarked) [1,1,1-Trifluoro-4-methyl-2-quinolin-4-ylmethyl-4-(2-trifluoromethylphenyl)pentan-2-ol] | potent activity | potent agonists |
| Cc1ccc(F)cc1C(C)(C)CC(O)(Cc1cc2ccnc(F)c2[nH]1)C(F)(F)F (centres unmarked) [1,1,1-Trifluoro-4-(5-fluoro-2-methylphenyl)-2-(7-fluoro-1H-pyrrolo[2,3-c]pyridin-2-ylmethyl)-4-methylpentan-2-ol] | potent activity | potent agonists |
| Cc1ccc(F)cc1C(C)(C)CC(O)(Cc1cc2cc(Cl)ncc2[nH]1)C(F)(F)F (centres unmarked) [2-(5-Chloro-1H-pyrrolo[2,3-c]pyridin-2-ylmethyl)-1,1,1-trifluoro-4-(5-fluoro-2-methylphenyl)-4-methylpentan-2-ol] | potent activity | potent agonists |
| Cc1ccc(C)c(C(C)(C)CC(O)(Cc2cc3ccccc3[nH]2)C(F)(F)F)c1 (centres unmarked) [4-(2,5-Dimethylphenyl)-1,1,1-trifluoro-2-(1H-indol-2-ylmethyl)-4-methylpentan-2-ol] | potent activity | potent agonists |
| COC(=O)CNC(=O)c1ccc2[nH]c(CC(O)(CC(C)(C)c3cc(F)ccc3OC)C(F)(F)F)cc2c1 (centres unmarked) [({2-[4-(5-Fluoro-2-methoxyphenyl)-2-hydroxy-4-methyl-2-trifluoromethylpentyl]-1H-indole-5-carbonyl}amino)acetic acid methyl ester] | potent activity | potent agonists |
| COc1cc(F)ccc1C(C)(C)CC(O)(Cc1cc(C)nc(C)c1)C(F)(F)F (centres unmarked) [2-(2,6-Dimethylpyridin-4-ylmethyl)-1,1,1-trifluoro-4-(4-fluoro-2-methoxyphenyl)-4-methylpentan-2-ol] | potent activity | potent agonists |
| Cc1cc2c(c(C(C)(C)CC(O)(Cc3cc4ccncc4[nH]3)C(F)(F)F)c1)OCC2 (centres unmarked) [1,1,1-Trifluoro-4-methyl-4-(5-methyl-2,3-dihydrobenzofuran-7-yl)-2-(1H-pyrrolo[2,3-c]pyridin-2-ylmethyl)pentan-2-ol] | potent activity | potent agonists |
| Cc1cc2[nH]c(CC(O)(CC(C)(C)c3cc(Cl)cc4c3OCC4)C(F)(F)F)cc2cn1 (centres unmarked) [4-(5-Chloro-2,3-dihydrobenzofuran-7-yl)-1,1,1-trifluoro-4-methyl-2-(6-methyl-1H-pyrrolo[3,2-c]pyridin-2-ylmethyl)pentan-2-ol] | potent activity | potent agonists |
| CC(C)(CC(O)(Cc1ccnc2ccccc12)C(F)(F)F)c1cccc(-c2ccccc2)c1 (centres unmarked) [4-Biphenyl-3-yl-1,1,1-trifluoro-4-methyl-2-quinolin-4-ylmethylpentan-2-ol] | potent activity | potent agonists |
| Cc1cc(C)c(C(C)(C)CC(O)(Cc2[nH]c3ccccc3c2C#N)C(F)(F)F)cc1O (centres unmarked) [2-[2-Hydroxy-4-(5-hydroxy-2,4-dimethylphenyl)-4-methyl-2-trifluoromethylpentyl]-1H-indole-3-carbonitrile] | potent activity | potent agonists |
| Cc1cc(CC(O)(CC(C)(C)c2cccc3c2OCC3)C(F)(F)F)cc(C)n1 (centres unmarked) [4-(2,3-Dihydrobenzofuran-7-yl)-2-(2,6-dimethylpyridin-4-ylmethyl)-1,1,1-trifluoro-4-methylpentan-2-ol] | potent activity | potent agonists |
| COc1ccc(C)cc1C(C)(C)CC(O)(Cc1cc2ccccc2[nH]1)C(F)(F)F (centres unmarked) [1,1,1-Trifluoro-2-(1H-indol-2-ylmethyl)-4-(2-methoxy-5-methylphenyl)-4-methylpentan-2-ol] | potent activity | potent agonists |
| Cc1ccc(F)c2[nH]c(CC(O)(CC(C)(C)c3ccc(F)cc3O)C(F)(F)F)cc12 (centres unmarked) [5-Fluoro-2-[4,4,4-trifluoro-3-(7-fluoro-4-methyl-1H-indol-2-ylmethyl)-3-hydroxy-1,1-dimethylbutyl]phenol] | potent activity | potent agonists |
| COc1ccc(F)cc1C(C)(C)CC(O)(Cc1cc2cc(C(=O)N3CCC(O)C3)ccc2[nH]1)C(F)(F)F (centres unmarked) [{2-[4-(5-Fluoro-2-methoxyphenyl)-2-hydroxy-4-methyl-2-trifluoromethylpentyl]-1H-indol-5-yl}(3-hydroxypyrrolidin-1-yl)methanone] | potent activity | potent agonists |
| COc1ccc(F)cc1C(C)(C)CC(O)(Cc1cc2c(C#N)nccc2[nH]1)C(F)(F)F (centres unmarked) [2-[4-(5-Fluoro-2-methoxyphenyl)-2-hydroxy-4-methyl-2-trifluoromethylpentyl]-1H-pyrrolo[3,2-c]pyridine-4-carbonitrile] | potent activity | potent agonists |
| COc1ccc(F)cc1C(C)(C)CC(O)(Cc1cc2cc(C#N)ncc2[nH]1)C(F)(F)F (centres unmarked) [2-[4-(5-Fluoro-2-methoxyphenyl)-2-hydroxy-4-methyl-2-trifluoromethylpentyl]-1H-pyrrolo[2,3-c]pyridine-5-carbonitrile] | potent activity | potent agonists |
| COc1ccc(F)cc1C(C)(C)CC(O)(Cc1ccnc(C#N)c1)C(F)(F)F (centres unmarked) [4-[4-(5-Fluoro-2-methoxyphenyl)-2-hydroxy-4-methyl-2-trifluoromethylpentyl]pyridine-2-carbonitrile] | potent activity | potent agonists |
| CSc1ccc2[nH]c(CC(O)(CC(C)(C)c3cc(F)cc4c3OCC4)C(F)(F)F)cc2c1 (centres unmarked) [1,1,1-Trifluoro-4-(5-fluoro-2,3-dihydrobenzofuran-7-yl)-4-methyl-2-(5-methylsulfanyl-1H-indol-2-ylmethyl)pentan-2-ol] | potent activity | potent agonists |
| Cc1ccc(F)cc1C(C)(C)CC(O)(Cc1cc2cnccc2s1)C(F)(F)F (centres unmarked) [1,1,1-Trifluoro-4-(5-fluoro-2-methylphenyl)-4-methyl-2-thieno[3,2-c]pyridin-2-ylmethylpentan-2-ol] | potent activity | potent agonists |
| COc1cc2cc(CC(O)(CC(C)(C)c3cc(F)ccc3C)C(F)(F)F)[nH]c2cn1 (centres unmarked) [1,1,1-Trifluoro-4-(5-fluoro-2-methylphenyl)-2-(5-methoxy-1H-pyrrolo[2,3-c]pyridin-2-ylmethyl)-4-methylpentan-2-ol] | potent activity | potent agonists |
| COc1ccc(F)cc1C(C)(C)CC(O)(Cc1cc2ncncc2[nH]1)C(F)(F)F (centres unmarked) [1,1,1-Trifluoro-4-(5-fluoro-2-methoxyphenyl)-4-methyl-2-(5H-pyrrolo[3,2-d]pyrimidin-6-ylmethyl)pentan-2-ol] | potent activity | potent agonists |
